Laboratory results published in patent US20250263496A1, “Neutrophil-Activating Therapy for the Treatment of Cancer” (The Board of Trustees of the Leland Stanford Junior …, priority 2024, published 2025).

Test system: B16 tumors
Assay: Oxidative damage in B16 tumors (DNA/RNA oxidation, oxidized glutathione)
Type: in vivo, mouse
Details: agent given prior to neutrophil-activating therapy
Method: Tumors were dissected away from surrounding fat, fixed in 2% paraformaldehyde for 2 hours at 4° C., equilibrated in a 30% sucrose solution at 4° C., and embedded and frozen in O.C.T. Compound (Tissue-Tek). Slides were cut to […] and blocked with 1% BSA and 10% serum matched to the secondary antibody species. […] All parameters that were quantified were acquired with identical microscope settings and adjusted identically in Photoshop, and all adjustments were applied equally across the entire tumor. Quantification was performed in ImageJ, using the wand tool on the overlaid multichannel image to draw a border around the tumor and then measuring the percent area within that border with signal for the channel of the marker quantified.
Determination of oxidized glutathione content. […] The percentage of oxidized glutathione was calculated from the reduced glutathione and total glutathione values determined by the kit.

N#Cc1cc(-c2n[nH]c(-c3ccncc3)n2)ccn1 [topiroxostat]
effect of agent on oxidation in tumors: prevented oxidation in tumors
